Assays:
[1] = test system: patients with refractory solid tumors; assay: Phase I dose escalation of RO4929097 with capecitabine: toxicity / DLT; type: in vivo
clinical = settings: human, in vivo; for AUC(0-inf): AUC0→∞
refractory solid tumors = assay: Antitumor activity by RECIST 1.1; type: in vivo, human; settings: 30 patients, all dose levels, with capecitabine
multiple animal models = settings: oral dosing; cited from earlier work
[2] = n=30, worst grade, at least possibly related, with capecitabine

## CC(C)(C(=O)NCC(F)(F)C(F)(F)F)C(=O)N[C@@H]1C(=O)Nc2ccccc2-c2ccccc21 [RO4929097]
[1]; human, in vivo
  Anemia, Grade 1: 0 n (%)
  Anemia, Grade 2: 2 (7) n (%)
  Anemia, Grade 3: 1 (3) n (%)
  Anemia, Grade 4: 0 n (%)
  Anemia, Overall: 3 (10) n (%)
  Anorexia, Grade 1: 5 (17) n (%)
  Anorexia, Grade 2: 2 (7) n (%)
  Anorexia, Grade 3: 0 n (%)
  Anorexia, Grade 4: 0 n (%)
  Anorexia, Overall: 7 (23) n (%)
  Chills, Grade 1: 3 (10) n (%)
  Chills, Grade 2: 0 n (%)
  Chills, Grade 3: 0 n (%)
  Chills, Grade 4: 0 n (%)
  Chills, Overall: 3 (10) n (%)
  Diarrhea, Grade 1: 9 (30) n (%)
  Diarrhea, Grade 2: 4 (13) n (%)
  Diarrhea, Grade 3: 1 (3) n (%)
  Diarrhea, Grade 4: 0 n (%)
  Diarrhea, Overall: 14 (47) n (%)
  Dry skin, Grade 1: 5 (17) n (%)
  Dry skin, Grade 2: 0 n (%)
  Dry skin, Grade 3: 0 n (%)
  Dry skin, Grade 4: 0 n (%)
  Dry skin, Overall: 5 (17) n (%)
  Fatigue, Grade 1: 6 (20) n (%)
  Fatigue, Grade 2: 8 (27) n (%)
  Fatigue, Grade 3: 2 (7) n (%)
  Fatigue, Grade 4: 0 n (%)
  Fatigue, Overall: 16 (53) n (%)
  Headache, Grade 1: 9 (30) n (%)
  Headache, Grade 2: 0 n (%)
  Headache, Grade 3: 0 n (%)
  Headache, Grade 4: 0 n (%)
  Headache, Overall: 9 (30) n (%)
  Hypokalemia, Grade 1: 1 (3) n (%)
  Hypokalemia, Grade 2: 1 (3) n (%)
  Hypokalemia, Grade 3: 2 (7) n (%)
  Hypokalemia, Grade 4: 0 n (%)
  Hypokalemia, Overall: 4 (13) n (%)
  Hypophosphatemia, Grade 1: 0 n (%)
  Hypophosphatemia, Grade 2: 8 (27) n (%)
  Hypophosphatemia, Grade 3: 6 (20) n (%)
  Hypophosphatemia, Grade 4: 0 n (%)
  Hypophosphatemia, Overall: 14 (47) n (%)
  Nausea, Grade 1: 17 (57) n (%)
  Nausea, Grade 2: 2 (7) n (%)
  Nausea, Grade 3: 2 (7) n (%)
  Nausea, Grade 4: 0 n (%)
  Nausea, Overall: 21 (70) n (%)
  Pain in legs, Grade 1: 4 (13) n (%)
  Pain in legs, Grade 2: 0 n (%)
  Pain in legs, Grade 3: 0 n (%)
  Pain in legs, Grade 4: 0 n (%)
  Pain in legs, Overall: 4 (13) n (%)
  Palmar-plantar erythrodysesthesia syndrome, Grade 1: 3 (10) n (%)
  Palmar-plantar erythrodysesthesia syndrome, Grade 2: 1 (3) n (%)
  Palmar-plantar erythrodysesthesia syndrome, Grade 3: 1 (3) n (%)
  Palmar-plantar erythrodysesthesia syndrome, Grade 4: 0 n (%)
  Palmar-plantar erythrodysesthesia syndrome, Overall: 5 (17) n (%)
  QTc prolongation, Grade 1: 5 (17) n (%)
  QTc prolongation, Grade 2: 1 (3) n (%)
  QTc prolongation, Grade 3: 0 n (%)
  QTc prolongation, Grade 4: 0 n (%)
  QTc prolongation, Overall: 6 (20) n (%)
  Taste alteration, Grade 1: 5 (17) n (%)
  Taste alteration, Grade 2: 0 n (%)
  Taste alteration, Grade 3: 0 n (%)
  Taste alteration, Grade 4: 0 n (%)
  Taste alteration, Overall: 5 (17) n (%)
  Vomiting, Grade 1: 11 (37) n (%)
  Vomiting, Grade 2: 1 (3) n (%)
  Vomiting, Grade 3: 2 (7) n (%)
  Vomiting, Grade 4: 0 n (%)
  Vomiting, Overall: 14 (47) n (%)
  Weight loss, Grade 1: 3 (10) n (%)
  Weight loss, Grade 2: 1 (3) n (%)
  Weight loss, Grade 3: 0 n (%)
  Weight loss, Grade 4: 0 n (%)
  Weight loss, Overall: 4 (13) n (%)
  diarrhea, patients: 47%
  fatigue, patients: 53%
  hypophosphatemia, patients: 47%
  nausea, patients: 70%
  vomiting, patients: 47%
[1]; [2]
  Anemia, Grade 5: 0 n (%)
  Anorexia, Grade 5: 0 n (%)
  Chills, Grade 5: 0 n (%)
  Diarrhea, Grade 5: 0 n (%)
  Dry skin, Grade 5: 0 n (%)
  Fatigue, Grade 5: 0 n (%)
  Headache, Grade 5: 0 n (%)
  Hypokalemia, Grade 5: 0 n (%)
  Hypophosphatemia, Grade 5: 0 n (%)
  Nausea, Grade 5: 0 n (%)
  Pain in legs, Grade 5: 0 n (%)
  Palmar-plantar erythrodysesthesia syndrome, Grade 5: 0 n (%)
  QTc prolongation, Grade 5: 0 n (%)
  Taste alteration, Grade 5: 0 n (%)
  Vomiting, Grade 5: 0 n (%)
  Weight loss, Grade 5: 0 n (%)
clinical; 20 mg
  Cmax: 358.3 ng/mL
  Half Life: 30.7 h
  half-life: 36.2 h
clinical; 20 mg, Cmax
  Cmax: 646 ng/mL
clinical; 30 mg
  AUC0→∞: 16609.4 ng·h/mL
  Cmax: 668.5 ng/mL
  Vd: 88.7 L/h
  AUC(0-inf): 25900 ng·h/mL
clinical; 30 mg, Cmax
  Cmax: 656 ng/mL
clinical; 30 mg, Vd
  Vd: 53 L
clinical; 45 mg
  Half Life: 9.5 h
  Vd: 118.9 L/h
  half-life: 17.8 h
clinical; 45 mg, Vd
  Vd: 63.3 L
clinical; 68 mg
  AUC0→∞: 18050.7 ng·h/mL
  Cmax: 1011.7 ng/mL
  Half Life: 16.0 h
  AUC(0-inf): 34400 ng·h/mL
  half-life: 15.9 h
clinical; 68 mg, Cmax
  Cmax: 1640 ng/mL
clinical; 100 mg
  AUC0→∞: 32748.6 ng·h/mL
  Cl: 3953.9 mL/h
  Cmax: 1473.2 ng/mL
  Half Life: 19.8 h
  AUC(0-inf): 51900 ng·h/mL
  half-life: 13.4 h
clinical; 100 mg, Cl
  clearance: 43.3 mL/min
clinical; 100 mg, Cmax
  Cmax: 2390 ng/mL
clinical; 150 mg
  Vd: 168.2 L/h
clinical; 150 mg, Vd
  Vd: 154 L
Refractory solid tumors
  progressive disease as best response, patients: 60%
Refractory solid tumors; after three or more cycles
  stable disease as best response, patients: 30%
Multiple animal models
  efficacy maintained post-dosing: up to 90 days

— paper PMC4297251 (Investigational new drugs, 2014)
